The results in this text go back to article PMC11831382, “Use of Aldehyde–Alkyne–Amine Couplings to Generate Medicinal Chemistry-Relevant Linkers” (ACS Medicinal Chemistry Letters, 2025).

Entries after “also recorded” stand apart in the source; their conditions may differ.

In data set [1] the target is CRBN-DDB1 (cereblon DNA damage-binding protein 1 complex) (Homo sapiens, UniProt Q96SW2). Nature of the data set: Fluorescence polarization (FP) CRBN-binding assay, direct titration. The conditions noted are these: 1 nM 4c titrated with CRBN-DDB1, triplicates, read-out: dissociation constant (Kd). The source says:
Medicinal chemistry scope was expanded by the synthesis of a few representative linkers, which were elaborated to modalities adorned with a cellular marker, an E3 ligase motif, and a free alcohol function. […] Initially, treatment with Pd(dba)2, dppb, and thiosalicylic acid removed the allyl protecting group to give 2m in 39% yield. The resulting secondary amine was coupled to a bodipy-containing carboxylic acid 3([25]) to afford the Boc-protected linker 4a (82% yield, Scheme 3). Simple Boc removal with acid exposed the secondary amine 4b intermediate, which was coupled to an acid comprising E3 ligand affording 4c. Such modalities have a free “handle” that could be added to a POI-binding ligand of choice, e.g., by substitution chemistry, esterification, or ether formation. […]
(§1) Following incubation, 100 μL per well Promega Nano -Glo HiBiT lytic detection reagent mix (Promega Nano -Glo HiBiT Lytic Detection System #N3050), prepared according to the manufacturer´s instructions in the kit, were added. […] Luminescence was measured using plate reader (BMG L abtech PHERA star).
(§2) Luminescence levels in the treatment wells were normalised to DMSO-treated samples and plotted as percentage of DMSO control in GraphPad Prism (10.2.3).Western blot 5x10^5 HEK293 CRISPR HIBIT BRD4 cells were seeded into 6-well plates 24 hours before treatment. […]
(§3) Fluorescence Polarization (FP). […]
Background: Fluorescence polarisation rises when a labelled molecule tumbles more slowly, as on binding a larger partner.

The next data set can be described thus: Solubility. The format is physicochemical. The conditions noted are these: for solubility: 5% PBS buffer, saline; for solubility (qualitative remark): visual or general observation. The source says: (§4) Moreover, the solubility of both final compounds was low (5% PBS buffer, saline). These examples were merely chosen to showcase the synthetic potential of the chemistry rather than a medicinal chemistry-focused PROTAC optimization approach for which scope remains to optimize PK properties in future heterofunctional molecules. For example, the alkyne functionality, present in the A^3 products 2a and 2c, although present in a number of marketed, bioactive molecules,[37] even PROTACs,[38] acting as a rigid hydrophobic spacer, can be reduced by catalytic hydrogenation[39] to afford a saturated, more flexible yet possibly less metabolically labile linker.

Data set [2] can be described thus: Microsomal stability (HLM). The format is in vitro ADME. The conditions noted are these: human, human liver microsomes.
Description: as §4

The nature of data set [3]: Bidirectional permeability (Papp A-B, B-A). The conditions noted are these: for A-B Permeability: class in words; for Papp A→B / Papp B→A: not told; for Papp A→B: A-B direction; for Papp B→A: B-A direction. The format is in vitro ADME. The source says: (§5) Figure S3 . PK data for 7a and 7c.
(§6) (2 pictures or pasted objects on this page, not shown here)

Data set [4] concerns P-gp. Nature of the data set: Bidirectional permeability (Papp A-B, B-A). The conditions noted are these: not told. The format is in vitro ADME.
Description: as §5, §6

The target in data set [5] is P-gp (Homo sapiens, UniProt P08183). Nature of the data set: P-gp substrate classification from efflux ratio. The format is in vitro ADME.
Description: as §5, §6

The next data set concerns BRD4 long and short. Nature of the data set: Western blot of BRD4 degradation. The format is cell-based. Here is the method: Figure 2 Representative Western blot of 7a degradation of BRD4 performed in HEK293 cell line after 18 h treatment. The experiment was done as n = 3 independent biological replicates.
The best analogue, 7a, was next shown, by Western blot, to degrade both BRD4 long and short in the 300–1000 nM range, reversed by the addition of either proteasome or neddylation inhibitors or by thalidomide.
Cell culture. HEK293 CRISPR HIBIT BRD4 cells were generated at CeTPD using CRISPR -CAS technology. Parental HEK293 and HEK293 CRISPR HIBIT BRD4 cell lines were cultured in DMEM media (Gibco), supplemented with 10% fetal bovine serum (FBS), and were kept at 37 °C, 5% CO2 in a humidiﬁed incubator.
BRD4 Degradation A ssays used a HiBiT Lytic assay. […]
as §1, §2, §3
(In general: In western blotting, separated proteins are transferred to a membrane and probed.)

The next data set concerns the target T1, BRD4 (Homo sapiens, UniProt O60885).
T1 construct: endogenous in cells; host or cells: HEK293 CRISPR HiBiT BRD4 (knock-in)
Nature of the data set: BRD4 degradation assay, Promega Nano-Glo HiBiT lytic assay. The format is cell-based. The conditions noted are these: HEK293 CRISPR HiBiT BRD4 cell line. Background: With HiBiT, luminescence reflects the tagged protein that the partner subunit can reach.

Sequence of P-gp (Homo sapiens, UniProt P08183) (P08183 whole entry): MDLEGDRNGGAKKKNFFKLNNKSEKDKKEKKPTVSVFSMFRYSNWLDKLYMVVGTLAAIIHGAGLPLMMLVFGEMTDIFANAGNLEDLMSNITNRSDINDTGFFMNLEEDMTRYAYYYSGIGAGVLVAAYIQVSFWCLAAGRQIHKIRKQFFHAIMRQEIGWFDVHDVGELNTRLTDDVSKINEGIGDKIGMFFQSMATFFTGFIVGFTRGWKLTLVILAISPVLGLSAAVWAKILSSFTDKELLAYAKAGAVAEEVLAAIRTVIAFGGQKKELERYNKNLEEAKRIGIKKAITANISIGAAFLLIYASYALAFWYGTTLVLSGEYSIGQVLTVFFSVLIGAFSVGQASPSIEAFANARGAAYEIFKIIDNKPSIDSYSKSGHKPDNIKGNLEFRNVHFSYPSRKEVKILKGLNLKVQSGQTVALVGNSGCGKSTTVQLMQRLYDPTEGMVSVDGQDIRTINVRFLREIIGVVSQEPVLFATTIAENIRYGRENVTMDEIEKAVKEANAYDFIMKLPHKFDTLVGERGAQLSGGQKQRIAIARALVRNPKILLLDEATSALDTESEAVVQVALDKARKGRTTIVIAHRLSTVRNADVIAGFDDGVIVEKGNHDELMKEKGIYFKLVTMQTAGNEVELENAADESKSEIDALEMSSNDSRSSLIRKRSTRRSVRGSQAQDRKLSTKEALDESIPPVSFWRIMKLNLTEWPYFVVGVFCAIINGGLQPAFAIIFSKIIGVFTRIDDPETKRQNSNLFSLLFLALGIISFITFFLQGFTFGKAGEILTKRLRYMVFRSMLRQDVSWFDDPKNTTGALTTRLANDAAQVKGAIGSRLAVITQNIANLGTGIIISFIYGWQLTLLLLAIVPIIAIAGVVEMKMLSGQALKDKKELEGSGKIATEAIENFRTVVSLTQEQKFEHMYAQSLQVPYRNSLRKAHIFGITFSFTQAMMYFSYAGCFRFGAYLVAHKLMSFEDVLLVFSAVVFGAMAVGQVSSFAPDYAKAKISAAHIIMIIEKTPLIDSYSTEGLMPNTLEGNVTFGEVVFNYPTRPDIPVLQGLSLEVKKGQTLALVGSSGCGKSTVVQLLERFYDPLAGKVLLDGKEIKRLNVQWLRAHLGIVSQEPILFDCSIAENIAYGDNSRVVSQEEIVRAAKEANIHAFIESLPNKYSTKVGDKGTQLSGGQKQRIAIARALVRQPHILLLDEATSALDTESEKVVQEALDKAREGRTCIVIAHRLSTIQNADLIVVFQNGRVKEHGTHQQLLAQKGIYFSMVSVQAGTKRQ
Sequence of CRBN-DDB1 (cereblon DNA damage-binding protein 1 complex) (Q96SW2 whole entry): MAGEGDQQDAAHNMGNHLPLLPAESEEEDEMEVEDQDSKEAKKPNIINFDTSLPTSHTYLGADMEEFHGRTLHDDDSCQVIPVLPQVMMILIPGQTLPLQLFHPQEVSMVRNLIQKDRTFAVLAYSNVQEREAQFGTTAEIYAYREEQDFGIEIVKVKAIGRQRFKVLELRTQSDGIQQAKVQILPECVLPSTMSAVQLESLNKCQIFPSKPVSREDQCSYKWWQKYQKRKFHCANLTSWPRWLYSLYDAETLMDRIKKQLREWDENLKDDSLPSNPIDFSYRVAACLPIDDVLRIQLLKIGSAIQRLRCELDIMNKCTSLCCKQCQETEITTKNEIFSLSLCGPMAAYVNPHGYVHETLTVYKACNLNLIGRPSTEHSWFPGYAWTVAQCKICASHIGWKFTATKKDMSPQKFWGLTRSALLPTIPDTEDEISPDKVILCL
Sequence of CRBN-DDB1 (cereblon DNA damage-binding protein 1 complex) (Q16531 whole entry partner): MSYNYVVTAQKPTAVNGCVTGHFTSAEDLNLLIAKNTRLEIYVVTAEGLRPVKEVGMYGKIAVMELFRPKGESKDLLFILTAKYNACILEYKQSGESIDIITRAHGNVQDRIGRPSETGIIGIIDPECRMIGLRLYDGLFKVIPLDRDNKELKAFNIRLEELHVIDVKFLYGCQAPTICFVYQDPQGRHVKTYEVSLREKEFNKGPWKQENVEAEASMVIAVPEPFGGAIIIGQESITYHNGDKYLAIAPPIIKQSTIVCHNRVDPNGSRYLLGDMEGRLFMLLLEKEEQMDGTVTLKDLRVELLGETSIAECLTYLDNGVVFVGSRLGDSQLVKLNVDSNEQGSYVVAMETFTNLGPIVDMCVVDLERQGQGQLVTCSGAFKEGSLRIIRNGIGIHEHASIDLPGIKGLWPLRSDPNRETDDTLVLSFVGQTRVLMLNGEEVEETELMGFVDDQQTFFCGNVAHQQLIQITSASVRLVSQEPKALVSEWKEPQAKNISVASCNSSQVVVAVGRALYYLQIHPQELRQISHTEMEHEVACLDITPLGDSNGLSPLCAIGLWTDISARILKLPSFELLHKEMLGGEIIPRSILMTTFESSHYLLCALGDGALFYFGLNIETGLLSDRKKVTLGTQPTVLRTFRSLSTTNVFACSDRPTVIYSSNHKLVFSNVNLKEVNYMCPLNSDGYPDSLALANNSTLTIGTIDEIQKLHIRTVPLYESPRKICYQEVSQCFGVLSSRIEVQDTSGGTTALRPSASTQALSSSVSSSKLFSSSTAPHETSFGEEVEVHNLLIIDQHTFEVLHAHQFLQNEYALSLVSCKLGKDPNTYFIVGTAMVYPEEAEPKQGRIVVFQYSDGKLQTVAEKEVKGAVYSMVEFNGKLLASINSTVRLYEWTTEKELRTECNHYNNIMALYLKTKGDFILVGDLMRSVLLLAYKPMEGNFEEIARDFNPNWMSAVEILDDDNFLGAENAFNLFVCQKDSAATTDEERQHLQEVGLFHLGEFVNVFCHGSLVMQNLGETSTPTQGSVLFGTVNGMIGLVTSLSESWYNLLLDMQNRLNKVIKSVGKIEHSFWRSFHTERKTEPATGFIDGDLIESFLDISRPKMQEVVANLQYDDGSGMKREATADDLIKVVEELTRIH

In general, Kd refers to the constant that tells how readily two partners part at equilibrium. Consider `CC1=CC(C)=[N+]2C1=C(CCC(=O)N1CCN(C(C#CCCO)C3CCC(NC(=O)CCOCCOCCNC(=O)c4ccc5c(c4)C(=O)N(C4CCC(=O)NC4=O)C5=O)CC3)CC1)c1c(C)cc(C)n1[B-]2(F)F` (stereo not shown) [Compound 4c], for which the dissociation constant (Kd) in data set [1] stood at 0.166 ± 0.0035 µM.

As usually defined, the half-life is the time in which the quantity being followed falls by half. Read a low half-life as fast loss. The microsomal CLint is the capacity of the preparation to metabolise the compound, expressed as a volume cleared per time. The low end stands for greater metabolic stability, the high end for faster metabolism. For orientation: Papp A→B means how fast a substance crosses the layer from the apical side. High values mean fast passage, low ones slow passage. Broadly, the Papp B→A is the apparent permeability from the basolateral to the apical side of a cell layer. Usually efflux ratio stands for the permeability from basolateral to apical divided by that in the opposite direction, in the common usage. Usually DC50 stands for the concentration giving 50% degradation. A higher DC50 goes with degradation only at high concentration. Take `Cc1sc2c(c1C)C(c1ccc(Cl)cc1)=N[C@@H](CC(=O)NCCNC(=O)c1ccc(SCCC#CC(C3CCOCC3)N3CCC(NC(=O)COc4cccc5c4C(=O)N(C4CCC(=O)NC4=O)C5=O)CC3)cc1)c1nnc(C)n1-2` (stereo partly shown) [Compound 7a]: the solubility result in “Solubility” is given as “low solubility”. Moreover, in data set [2], the half-life at 1 h was 6.64 min and the intrinsic metabolic clearance (microsomal CLint) is 209 µL/min/mg. In addition, in data set [3], the “A-B Permeability” value is “low permeability and Low”; the Papp A→B turned out to be 0.07 nm/s; the apparent permeability from basolateral to apical (Papp B→A) came out at 0.1 nm/s. In the data set on P-gp [4], the efflux ratio is 1.4. In addition, the “P-gp Substrate” value at P-gp [5] was “Not-Substrate”. Also, the “degradation on addition of proteasome or neddylation inhibitors or thalidomide” value in the data set with BRD4 long and short (10 µM 7a with 10 µM MG132, MLN4924 or thalidomide, 18 h) is “reversed”. The “concentration range degrading BRD4 long and short” value with BRD4 long and short (HEK293 cell line, 18 h treatment) lay within 300 to 1000 nM. This compound also yielded a 50% degradation concentration (DC50) at BRD4 (18 h after dosage) of 0.0894 µM.

In the case of `Cc1ncsc1-c1ccc(CNC(=O)[C@@H]2C[C@@H](O)CN2C(=O)[C@@H](NC(=O)CCCCC(=O)NC2CCN(C(C#CCCSc3ccc(C(=O)NCCNC(=O)C[C@@H]4N=C(c5ccc(Cl)cc5)c5c(sc(C)c5C)-n5c(C)nnc54)cc3)C3CCOCC3)CC2)C(C)(C)C)cc1` (stereo partly shown) [Compound 7b], the “solubility (qualitative remark)” value in “Solubility” was “poor solubility; also recorded: visibly poorly soluble”. The compound also came in with a DC50 on BRD4 (18 h) above 1 µM.

Regarding `Cc1sc2c(c1C)C(c1ccc(Cl)cc1)=N[C@@H](CC(=O)NCC#CC(C1CCN(C(=O)COc3cccc4c3C(=O)N(C3CCC(=O)NC3=O)C4=O)CC1)N1CCN(C(=O)COc3cccc4c3C(=O)N(C3CCC(=O)NC3=O)C4=O)CC1)c1nnc(C)n1-2` (stereo partly shown) [Compound 7c], in “Solubility”, the solubility entry is given as “low solubility” and the “solubility (qualitative remark)” value is given as “poor solubility”. In data set [2], this compound displayed a half-life at 1 h of 17.5 min and a microsomal CLint of 79.1 µL/min/mg. Also, in data set [3], the “A-B Permeability” value was “low permeability and Low”; the apical-to-basolateral permeability (Papp A→B) is below 1 nm/s; the Papp B→A was below 1 nm/s. On BRD4 (18 h), this compound returned a DC50 above 1 µM.
